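1) Cells in 96-well plates. 2) Compound, 48 h, 5 concentrations. 3) Linear interpolation between surrounding doses. 4) Unreached endpoint = highest concentration. At the GI50, growth is halved.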 Activity calls are given as the source filed them. Rule as the data show it: active = GI50 up to about 1.1 µM and inactive = higher.
Legend:
Test in all cases: NCI-60 cell line screen, 48 h
[1] = test system: HOP-92
[2] = test system: SW-620
[3] = test system: IGROV-1
[4] = test system: A549
[5] = test system: UO-31
[6] = test system: HCT-15
[7] = test system: UACC-257
[8] = test system: SNB-19
[9] = test system: SK-MEL-2
[10] = test system: SF-295
[11] = test system: LOX IMVI
[12] = test system: RXF 393
[13] = test system: SNB-75
[14] = test system: NCI-H460
[15] = test system: NCI-H226
[16] = test system: HL-60
[17] = test system: SF-268
[18] = test system: OVCAR-5
[19] = test system: Malme-3M
[20] = test system: SN12C

Row | Structure (SMILES) | GI50 [1] | GI50 [2] | GI50 [3] | GI50 [4] | GI50 [5] | GI50 [6] [µM] | GI50 [7] | GI50 [8] | GI50 [9] | GI50 [10] | GI50 [11] | GI50 [12] | GI50 [13] | GI50 [14] | GI50 [15] | GI50 [16] | GI50 [17] | GI50 [18] | GI50 [19] | GI50 [20]
1 | CCc1cc2c(oc3cc4ccccc4cc32)c(=O)[nH]1 | > 10 µM (inactive) | > 10 µM (inactive) | > 10 µM (inactive) | > 10 µM (inactive) | > 10 µM (inactive) | > 10 | > 10 µM (inactive) | > 10 µM (inactive) | > 10 µM (inactive) | > 10 µM (inactive) | > 10 µM (inactive) | > 10 µM (inactive) | > 10 µM (inactive) | > 10 µM (inactive) | > 10 µM (inactive) | > 10 µM (inactive) | > 10 µM (inactive) | > 10 µM (inactive) | > 10 µM (inactive) | > 10 µM (inactive)
2 | CNC(=O)OCc1nc(SC)n(C)c1CO | > 100 µM (inactive) | > 100 µM (inactive) | > 100 µM (inactive) | > 100 µM (inactive) | > 100 µM (inactive) | > 100 | > 100 µM (inactive) | > 100 µM (inactive) | > 46.9 µM (inactive) | > 100 µM (inactive) | > 100 µM (inactive) | > 100 µM (inactive) | > 100 µM (inactive) | > 100 µM (inactive) | > 100 µM (inactive) | > 100 µM (inactive) | > 100 µM (inactive) | > 100 µM (inactive) | 1.68 µM (inactive) | > 100 µM (inactive)
3 | c1ccc2c(c1)c1ccccc1n2Cn1c2ccccc2c2ccccc21 | > 100 µM (inactive) | > 100 µM (inactive) | > 100 µM (inactive) | > 100 µM (inactive) | > 100 µM (inactive) | > 100 | > 100 µM (inactive) | > 100 µM (inactive) | > 100 µM (inactive) | > 100 µM (inactive) | > 100 µM (inactive) | > 100 µM (inactive) | 30.8 µM (inactive) | > 100 µM (inactive) | > 100 µM (inactive) | > 100 µM (inactive) | > 100 µM (inactive) | > 100 µM (inactive) | > 100 µM (inactive) | > 100 µM (inactive)
4 | O=S(=O)(/N=C(\NO)Nc1ccc(Cl)cc1)c1ccc(-c2ccccn2)s1 | 27.4 µM (inactive) | 48.1 µM (inactive) | 38.5 µM (inactive) | 61 µM (inactive) | 80.2 µM (inactive) | 39.7 | 34 µM (inactive) | > 100 µM (inactive) | 46 µM (inactive) | 52.1 µM (inactive) | 57.8 µM (inactive) | 19 µM (inactive) | 50.7 µM (inactive) | 87.3 µM (inactive) | 90.8 µM (inactive) | 24 µM (inactive) | 35.7 µM (inactive) | 74.1 µM (inactive) | 19.6 µM (inactive) | 24.4 µM (inactive)
5 | COc1ccc(C2c3cc4c(cc3OC(Nc3ccccc3)C2C)OCO4)cc1 (stereo not given) | 23.8 µM (inactive) | 64.3 µM (inactive) | 99.8 µM (inactive) | 22.5 µM (inactive) | 29.5 µM (inactive) | 33.6 | 75.2 µM (inactive) | > 100 µM (inactive) | > 100 µM (inactive) | 25.5 µM (inactive) | 27.7 µM (inactive) | 33.5 µM (inactive) | 44.1 µM (inactive) | 7.98 µM (inactive) | 41.1 µM (inactive) | 22.2 µM (inactive) | 42.9 µM (inactive) | > 100 µM (inactive) | 63.5 µM (inactive) | 61.1 µM (inactive)
6 | CN(C)CCNC(=O)c1cccc2c1Nc1ccccc1S2 | 2.08 µM (inactive) | 16.7 µM (inactive) | 11.3 µM (inactive) | 14.7 µM (inactive) | 10.1 µM (inactive) | 16 | 13.7 µM (inactive) | 9.75 µM (inactive) | 16.3 µM (inactive) | 14.5 µM (inactive) | 12.2 µM (inactive) | 9.35 µM (inactive) | 6.81 µM (inactive) | 11.2 µM (inactive) | 11.5 µM (inactive) | 5 µM (inactive) | 15.8 µM (inactive) | 13.4 µM (inactive) | 14.8 µM (inactive) | 13 µM (inactive)
7 | CCOC(=O)NC(=O)c1cn(C2CCCCC2)c(=O)n(C)c1=O | > 100 µM (inactive) | > 100 µM (inactive) | > 100 µM (inactive) | > 100 µM (inactive) | > 100 µM (inactive) | > 100 | > 100 µM (inactive) | > 100 µM (inactive) | > 100 µM (inactive) | > 100 µM (inactive) | > 100 µM (inactive) | > 100 µM (inactive) | > 100 µM (inactive) | > 100 µM (inactive) | > 100 µM (inactive) | > 100 µM (inactive) | > 100 µM (inactive) | > 100 µM (inactive) | > 100 µM (inactive) | > 100 µM (inactive)
8 | Cc1c(-c2cc3n(n2)C(c2cccs2)C(C#N)=C(c2ccccc2)N3)c(=O)n(-c2ccccc2)n1C (stereo not given) | 36 µM (inactive) | > 100 µM (inactive) | 87.7 µM (inactive) | > 100 µM (inactive) | 77.4 µM (inactive) | 84.1 | 49.2 µM (inactive) | > 100 µM (inactive) | 51.6 µM (inactive) | > 74.3 µM (inactive) | 38.5 µM (inactive) | 37.4 µM (inactive) | > 55.1 µM (inactive) | 76.9 µM (inactive) | > 100 µM (inactive) | 48.9 µM (inactive) | > 100 µM (inactive) | > 100 µM (inactive) | > 100 µM (inactive) | > 80.2 µM (inactive)
9 | CCOC(=O)/C=C(\C)c1ccc(C)cc1C | 29.8 µM (inactive) | 17.8 µM (inactive) | > 100 µM (inactive) | > 100 µM (inactive) | > 100 µM (inactive) | 29.9 | > 100 µM (inactive) | > 100 µM (inactive) | 45.2 µM (inactive) | > 100 µM (inactive) | 16.3 µM (inactive) | 14.4 µM (inactive) | 75.3 µM (inactive) | > 100 µM (inactive) | > 100 µM (inactive) | 2.89 µM (inactive) | > 100 µM (inactive) | > 100 µM (inactive) | 26.1 µM (inactive) | 39.8 µM (inactive)
10 | O=C1CC2(CCC(O)(c3ccccc3)C(C(=O)c3ccccc3)C2)C(=O)c2ccccc2N1 (stereo not given) | 93.5 µM (inactive) | > 100 µM (inactive) | > 100 µM (inactive) | > 100 µM (inactive) | > 100 µM (inactive) | > 100 | > 100 µM (inactive) | > 100 µM (inactive) | > 100 µM (inactive) | > 100 µM (inactive) | > 100 µM (inactive) | > 100 µM (inactive) | > 100 µM (inactive) | > 100 µM (inactive) | > 100 µM (inactive) | > 100 µM (inactive) | > 100 µM (inactive) | > 100 µM (inactive) | > 100 µM (inactive) | > 100 µM (inactive)
11 | CNc1cc2c(c3ccccc13)C(CCl)CN2C(=O)c1cc2cc(OC)c(OC)c(OC)c2[nH]1 (stereo not given) | 0.00484 µM (active) | 0.00144 µM (active) | 0.00243 µM (active) | 0.00153 µM (active) | 0.00223 µM (active) | 0.00137 | 0.00541 µM (active) | 0.0124 µM (active) | 0.00785 µM (active) | 0.00155 µM (active) | 0.00106 µM (active) | < 0.01 µM (active) | 0.00252 µM (active) | 0.000212 µM (active) | 0.0138 µM (active) | 0.000123 µM (active) | 0.0017 µM (active) | 0.0052 µM (active) | < 0.01 µM (active) | 0.000881 µM (active)
12 | OCc1cc2ccncc2c2c1[nH]c1ccccc12 | 12.1 µM (inactive) | 3.29 µM (inactive) | 2.73 µM (inactive) | 4.37 µM (inactive) | 7.53 µM (inactive) | 5.64 | 14.8 µM (inactive) | 6.49 µM (inactive) | 12.1 µM (inactive) | 5.81 µM (inactive) | 3.44 µM (inactive) | 2.96 µM (inactive) | 4.51 µM (inactive) | 2.76 µM (inactive) | 2.13 µM (inactive) | 4.84 µM (inactive) | 4.66 µM (inactive) | 3.95 µM (inactive) | 6.95 µM (inactive) | 5.42 µM (inactive)
